Measured values taken from US4476129A, “4-[2-[Bis(halophenyl)methoxy]-ethyl]-α-(substituted phenyl)-1-piperazinealkanol derivatives, processes for their preparation and pharmaceutical preparations containing them” (priority 1982, dated 1984).
“And” between values parts separate entries of the source, which are not always exact repeats. Equal entries are not always repeated. Structures can show the parent of a compound that is named as a salt. Where two headings read alike, the source gives them in different places.

How the values were obtained:
[1] = target: T1, dopamine receptors (Rattus norvegicus, UniProt P61169); test: Affinity to dopamine receptors (receptor binding)
T1 construct: membrane fraction of the corpus striatum of the rat; from tissue; host or cells: rat corpus striatum, membrane fraction
T1 sequence (P61169 whole entry): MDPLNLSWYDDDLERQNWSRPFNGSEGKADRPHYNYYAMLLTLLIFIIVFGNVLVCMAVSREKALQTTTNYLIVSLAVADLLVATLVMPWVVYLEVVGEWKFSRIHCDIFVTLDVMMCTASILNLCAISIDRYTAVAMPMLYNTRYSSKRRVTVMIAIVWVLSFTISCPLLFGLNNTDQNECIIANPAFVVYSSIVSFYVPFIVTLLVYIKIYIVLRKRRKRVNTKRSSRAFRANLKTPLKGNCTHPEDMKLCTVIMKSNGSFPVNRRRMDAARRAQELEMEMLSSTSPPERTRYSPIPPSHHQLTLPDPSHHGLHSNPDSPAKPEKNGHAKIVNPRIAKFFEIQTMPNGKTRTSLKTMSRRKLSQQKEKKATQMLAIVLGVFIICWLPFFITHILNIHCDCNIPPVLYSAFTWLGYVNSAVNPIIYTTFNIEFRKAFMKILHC
Procedure: (§1) B. Affinity to dopamine receptors.
(§2) The affinity of the compounds to the dopamine receptors in a membrane fraction of the corpus striatum of the rat was determined as described by D. R. Burt et al., Mol. Pharmacol., 12, 800-812 (1976), dopamine and the dopamine antagonist haloperiodol being used as radioactive labelled ligands. The IC50-value is the concentration of the piperazine derivatives necessary to inhibit the specific binding of dopamine, or haloperiodol for 50%.

[2] = target: dopamine receptors; test: Affinity to dopamine receptors (receptor binding); set-up: species or system rat; settings: membrane fraction of corpus striatum of the rat, radioactive labelled dopamine as ligand
Procedure: as §1, §2

[3] = test system: stereotyped behaviour in female Wistar rats; test: Stereotypy in the rat (stereotyped behaviour); assay type: in vivo; settings: 50% of the maximal effect, observed 15-300 minutes after administration; for ED50: Rattus norvegicus, po; for ED50, stereotyped behaviour: p.o.
Procedure: C. Stereotypy in the rat.
The stereotyped behavior appearing in the rat after administration of centrally active dopaminergic substances can be regarded as a relevant test for antiparkinson agents.
The tests were carried out with female Wistar rats under conditions with a low level of stimuli. The behaviour of the rats was observed on 15, 30, 60, 120, 180, 240 and 300 minutes after administration of the substance, the following parameters being considered:
The total impression of the intensity of stereotypy was noted according to the following rating:
For each dose a group of four rats was used, so that the total score for the seven observations was maximally 7×4×3=84.

[4] = test system: dopamine uptake by striatal synaptosomes (corpus striatum of the rat); test: Inhibition of re-uptake of dopamine by striatal synaptosomes; assay type: biochemical; settings: radioactive labelled dopamine
Procedure: A. Inhibition of re-uptake of dopamine by striatal synaptosomes.
The re-uptake process is the most important physiological mechanism causing inactivation of neurotransmitters like dopamine, which are released into the synaptic cleft by a nervous impulse. Inhibition of the dopamine uptake will lead to increased concentration of dopamine in the synaptic cleft and potentiation of the dopamine effect on the post-synaptic receptor. This inhibition was examined in vitro by incubation of synaptosomes of the corpus striatum of the rat with radioactive labelled dopamine, as described by P. van der Zee and W. Hespe, Neuropharmacol. 17, 483-490 (1978). Measurements were made of the concentration of the test compound giving 50% inhibition of the uptake (IC50).

[5] = membrane fraction of corpus striatum of the rat, radioactive labelled haloperidol (dopamine antagonist) as ligand, read-out: IC50, receptor binding haloperidol

Row | SMILES | IC50 [1, 5] | IC50 [2] | ED50 [3] | IC50 [4] | IC50 [1] | ED50, stereotyped behaviour [3]
1 | OC(CN1CCN(CCOC(c2ccc(F)cc2)c2ccc(F)cc2)CC1)c1ccccc1 (stereo not drawn) [Compound 1, 4-[2-[bis(4-fluorophenyl)methoxy]ethyl]-α-phenyl-1-piperazineethanol] | 780 nM | 46.7 nM | 17.5 mg/kg | 26.5 nM | – | –
2 | OC(CCN1CCN(CCOC(c2ccc(F)cc2)c2ccc(F)cc2)CC1)c1ccccc1 (stereo not drawn) [Compound 2, 4-[2-[bis(4-fluorophenyl)methoxy]ethyl]-α-phenyl-1-piperazinepropanol] | – | 13.3 nM | – | 1.3 nM | 307 nM | –
3 | OC(CCN1CCN(CCOC(c2ccc(F)cc2)c2ccc(F)cc2)CC1)c1ccc(F)cc1 (stereo not drawn) [Compound 3, 4-[2-[bis(4-fluorophenyl)methoxy]ethyl]-α-(4-fluorophenyl)-1-piperazinepropanol] | 610 nM | 8.7 nM | 1.7 mg/kg | 8.2 nM | – | 2.3 mg/kg p.o. and 1.3 mg/kg p.o.
4 | OC(Cc1ccccc1)CN1CCN(CCOC(c2ccc(F)cc2)c2ccc(F)cc2)CC1 (stereo not drawn) [Compound 4, 4-[2-[bis(4-fluorophenyl)methoxy]ethyl]-α-(phenylmethyl)-1-piperazineethanol] | 546 nM | 30.5 nM | ~6 mg/kg | 5.4 nM | – | –
5 | CC(O)(CCN1CCN(CCOC(c2ccc(F)cc2)c2ccc(F)cc2)CC1)c1ccccc1 (stereo not drawn) [Compound 5, 4-[2-[bis(4-fluorophenyl)methoxy]ethyl]-α-phenyl-α-methyl-1-piperazinepropanol] | 283 nM | 22.3 nM | 14 mg/kg | 2.4 nM | – | –
6 | CC(O)(CCN1CCN(CCOC(c2ccc(F)cc2)c2ccc(F)cc2)CC1)c1ccc(F)cc1 (stereo not drawn) [Compound 6, 4-[2-[bis(4-fluorophenyl)methoxy]ethyl]-α-(4-fluorophenyl)-α-methyl-1-piperazinepropanol] | 277 nM | 32.3 nM | 11.4 mg/kg | 6.7 nM | – | –
7 | CCC(O)(CCN1CCN(CCOC(c2ccc(F)cc2)c2ccc(F)cc2)CC1)c1ccccc1 (stereo not drawn) [Compound 7, 4-[2-[bis(4-fluorophenyl)methoxy]ethyl]-α-ethyl-α-phenyl-1-piperazinepropanol] | 361 nM | 63 nM | 26 mg/kg | 22.1 nM | – | –
8 | OC(CCCN1CCN(CCOC(c2ccc(F)cc2)c2ccc(F)cc2)CC1)c1ccccc1 (stereo not drawn) [Compound 8, 4-[2-[bis(4-fluorophenyl)methoxy]ethyl]-α-phenyl-1-piperazinebutanol] | 445 nM | 4 nM | 6.2 mg/kg | 3.4 nM | – | 4.6 mg/kg p.o.
9 | Cl.Cl.OC(CCCN1CCN(CCOC(c2ccc(F)cc2)c2ccc(F)cc2)CC1)c1ccc(F)cc1 (stereo not drawn) [Compound 9, 4-[2-[bis(4-fluorophenyl)methoxy]ethyl]-α-(4-fluorophenyl)-1-piperazinebutanol dihydrochloride] | – | 18.1 nM | < 5 mg/kg | 2.8 nM | 492 nM | –
10 | O=C(CN1CCN(CCOC(c2ccc(F)cc2)c2ccc(F)cc2)CC1)c1ccccc1 [Compound 10, 2-[4-[2-[bis(4-fluorophenyl)methoxy]ethyl]-1-piperazinyl]-1-phenylethanonedihydrochloride] | 524 nM | 55 nM | – | 28.3 nM | – | –
11 | O=C(CCN1CCN(CCOC(c2ccc(F)cc2)c2ccc(F)cc2)CC1)c1ccccc1 [Compound 11, 3-[4-[2-[bis(4-fluorophenyl)methoxy]ethyl]-1-piperazinyl]-1-phenyl-1-propanone] | – | 80.3 nM | < 5.5 mg/kg | 39.7 nM | 268 nM | –
12 | O=C(CCN1CCN(CCOC(c2ccc(F)cc2)c2ccc(F)cc2)CC1)c1ccc(F)cc1 [Compound 12, 3-[4-[2-[bis(4-fluorophenyl)methoxy]ethyl]-1-piperazinyl]-1-(4-fluorophenyl)-1-propanone] | 467 nM | 180 nM | 5.5 mg/kg | 35.4 nM | – | –
13 | Cl.Cl.O=C(Cc1ccccc1)CN1CCN(CCOC(c2ccc(F)cc2)c2ccc(F)cc2)CC1 [Compound 13, 1-[4-[2-[bis(4-fluorophenyl)methoxy]ethyl]-1-piperazinyl]-3-phenyl-2-propanone dihydrochloride] | – | 76 nM | 9.1 mg/kg | 27 nM | 545 nM | –
14 | Cl.Cl.O=C(CCCN1CCN(CCOC(c2ccc(F)cc2)c2ccc(F)cc2)CC1)c1ccccc1 [Compound 14, 4-[4-[2-[bis(4-fluorophenyl)methoxy]-ethyl]-1-piperazinyl]-1-phenyl-1-butanone dihydrochloride] | – | 15.5 nM | 18 mg/kg | 2.5 nM | 23.3 nM | –
15 | O=C(CCCN1CCN(CCOC(c2ccc(F)cc2)c2ccc(F)cc2)CC1)c1ccc(F)cc1 [Compound 15, 4-[4-[2bis(4-fluorophenyl)methoxy]ethyl]-1-piperazinyl]-1-(4-fluorophenyl)-1-butanone dihydrochloride] | – | 291 nM | > 46 mg/kg | 5.2 nM | 19 nM | –
16 | COC(CCN1CCN(CCOC(c2ccc(F)cc2)c2ccc(F)cc2)CC1)c1ccccc1.Cl.Cl (stereo not drawn) [Compound 16, 1-[2-[bis-(4-fluorophenyl)methoxy]ethyl]-4-(3-phenyl-3-methoxypropyl]piperazine dihydrochloride] | – | 50 nM | 4.6 mg/kg | 13.2 nM | 523 nM | –
17 | CNC(=O)OC(CCN1CCN(CCOC(c2ccc(F)cc2)c2ccc(F)cc2)CC1)c1ccccc1 (stereo not drawn) [Compound 17, methylcarbaminic 3-[4-[2-[bis(4-fluorophenyl)methoxy]ethyl]-1-piperazinyl]-1-phenylpropyl]ester (Z)-2-butendioate (1:2)] | – | 27.2 nM | 4.3 mg/kg | 4.9 nM | 97.3 nM | 7.2 mg/kg p.o.
18 | CCNC(=O)OC(CCN1CCN(CCOC(c2ccc(F)cc2)c2ccc(F)cc2)CC1)c1ccccc1 (stereo not drawn) [Compound 18, Ethylcarbaminic[3-[4-[2-[bis(fluorophenyl)methoxy]ethyl]-1-piperazinyl]-1-phenylpropyl]ester (Z)-2-butenedioate (1:2)] | 216 nM | 16.9 nM | 11.2 mg/kg | 2.4 nM | – | –
19 | O=C(Nc1ccccc1)OC(CCN1CCN(CCOC(c2ccc(F)cc2)c2ccc(F)cc2)CC1)c1ccccc1 (stereo not drawn) [Compound 19, Phenylcarbaminic[3-[4-[2-[bis(4-fluorophenyl)methoxy]ethyl]-1-piperazinyl]-1-phenylpropyl]ester (Z)-2-butenedioate (1:2)] | 302 nM | 43.4 nM | – | 3.3 nM | – | –
20 | CC(C)C[C@H]1C(=O)N2CCC[C@H]2[C@]2(O)O[C@](NC(=O)[C@@H]3C=C4c5cccc6[nH]c(Br)c(c56)C[C@H]4N(C)C3)(C(C)C)C(=O)N12 [bromocriptine, reference compound] | – | – | 25.3 mg/kg | – | – | –
21 | c1cnc(N2CCN(Cc3ccc4c(c3)OCO4)CC2)nc1 [piribedil, reference compound] | – | – | 99.5 mg/kg | – | – | –
